Here are results for 17 compounds from patent US20230278995A1, “1,3,4-OXADIAZOLE DERIVATIVE COMPOUNDS AS HISTONE DEACETYLASE 6 INHIBITOR, AND THE PHARMACEUTICAL COMPOSITION COMPRISING THE SAME” (CHONG KUN DANG PHARMACEUTICAL CORP., priority 2020, published 2023).

The target in one assay is T1, human recombinant HDAC1 (Homo sapiens, UniProt Q13547).
T1 construct: purchased Enzo Life Sciences, Inc. BML-SE456
Put plainly: HDAC enzyme activity inhibition assay (HDAC Fluorimetric Drug Discovery Kit), HDAC1. Type of assay: biochemical. The settings on record: human recombinant HDAC1, Fluor de Lys-SIRT1 substrate, 30° C. 60 minutes. In short, it runs like this: (§1)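 Recombinant human HDAC1 or HDAC6 (0.3 μg) reacted with 10 μM Fluor de Lys-SIRT1 substrate at 30 °C for 60 min. Developer added for 30 min, then fluorescence read at Ex 360/Em 460.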

A further assay addresses T2, human recombinant HDAC6 (Homo sapiens, UniProt Q9UBN7).
T2 construct: purchased Calbiochem Inc. 382180
T2 sequence (Q9UBN7 1-1215): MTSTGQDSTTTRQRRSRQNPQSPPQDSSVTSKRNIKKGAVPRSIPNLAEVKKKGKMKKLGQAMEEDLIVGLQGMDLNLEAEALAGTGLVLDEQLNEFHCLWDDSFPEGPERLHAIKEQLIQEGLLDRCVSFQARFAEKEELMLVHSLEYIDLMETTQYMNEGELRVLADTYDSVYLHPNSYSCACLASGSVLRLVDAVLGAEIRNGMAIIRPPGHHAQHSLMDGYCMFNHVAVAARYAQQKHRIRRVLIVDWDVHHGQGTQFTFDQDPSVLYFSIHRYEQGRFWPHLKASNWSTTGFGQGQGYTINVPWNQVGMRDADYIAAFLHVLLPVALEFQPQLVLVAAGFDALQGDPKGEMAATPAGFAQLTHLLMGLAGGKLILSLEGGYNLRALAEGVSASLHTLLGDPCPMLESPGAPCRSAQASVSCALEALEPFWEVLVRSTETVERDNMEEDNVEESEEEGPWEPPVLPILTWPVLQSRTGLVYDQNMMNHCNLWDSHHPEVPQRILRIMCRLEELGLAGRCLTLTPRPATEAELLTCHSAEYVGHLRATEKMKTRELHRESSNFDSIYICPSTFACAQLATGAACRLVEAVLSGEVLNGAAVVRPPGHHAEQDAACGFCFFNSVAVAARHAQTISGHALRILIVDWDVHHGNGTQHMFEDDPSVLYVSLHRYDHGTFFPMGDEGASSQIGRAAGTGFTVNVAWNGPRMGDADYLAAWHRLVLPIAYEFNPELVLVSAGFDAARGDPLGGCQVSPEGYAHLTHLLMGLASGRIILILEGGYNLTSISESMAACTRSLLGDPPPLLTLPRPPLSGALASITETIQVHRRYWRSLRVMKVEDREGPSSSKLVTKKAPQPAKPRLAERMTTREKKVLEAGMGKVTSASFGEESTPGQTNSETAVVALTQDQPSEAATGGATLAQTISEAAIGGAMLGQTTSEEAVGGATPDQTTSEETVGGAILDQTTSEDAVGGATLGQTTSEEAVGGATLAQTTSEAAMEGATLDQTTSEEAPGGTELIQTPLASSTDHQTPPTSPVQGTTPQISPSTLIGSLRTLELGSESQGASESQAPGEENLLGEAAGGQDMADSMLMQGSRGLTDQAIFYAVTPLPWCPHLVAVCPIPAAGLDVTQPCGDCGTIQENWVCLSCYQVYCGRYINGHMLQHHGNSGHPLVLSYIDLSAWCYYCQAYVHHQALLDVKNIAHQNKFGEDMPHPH
The experiment in a line: HDAC enzyme activity inhibition assay (HDAC Fluorimetric Drug Discovery Kit), HDAC6. Type of assay: biochemical. To be noted: for HDAC6 selectivity (fold): HDAC1 vs HDAC6; for IC50: human recombinant HDAC6, same protocol as HDAC1. In short, it runs like this:
as §1

Bounds are passed on as bounds.

As a reminder, the IC50 is the point on the concentration scale where inhibition reaches its midpoint.

T1 sequence (Q13547 whole entry): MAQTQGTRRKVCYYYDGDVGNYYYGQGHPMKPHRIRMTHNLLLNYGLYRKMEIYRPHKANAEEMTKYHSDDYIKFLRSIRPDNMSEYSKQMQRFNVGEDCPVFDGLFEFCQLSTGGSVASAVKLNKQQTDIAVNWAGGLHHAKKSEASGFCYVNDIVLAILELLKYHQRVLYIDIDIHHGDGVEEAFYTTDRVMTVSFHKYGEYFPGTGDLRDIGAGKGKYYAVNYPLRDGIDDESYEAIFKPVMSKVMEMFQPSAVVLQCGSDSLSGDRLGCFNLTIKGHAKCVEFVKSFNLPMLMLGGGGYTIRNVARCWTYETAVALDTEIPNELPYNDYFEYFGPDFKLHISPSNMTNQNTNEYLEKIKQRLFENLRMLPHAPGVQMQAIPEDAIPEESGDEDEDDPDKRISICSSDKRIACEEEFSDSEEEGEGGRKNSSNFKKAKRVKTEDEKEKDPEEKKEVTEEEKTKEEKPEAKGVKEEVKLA

As to `CC(=O)N1CC(F)(C(=O)N(Cc2ccc(-c3nnc(C(F)F)o3)cn2)c2ccccc2)C1` [Compound 3152, 1-acetyl-N-((5-(5-(difluoromethyl)-1,3,4-oxadiazol-2-yl)pyridin-2-yl)methyl)-3-fluoro-N-phenylazetidine-3-carboxamide], the IC50 on human recombinant HDAC1 is > 50000 nM. Besides, on human recombinant HDAC6, the “HDAC6 selectivity (fold)” value is reported as 1,377 fold and the 50% inhibitory concentration (IC50) was found to be 36.3 nM.
On the same counts, the results for `CCC(=O)N1CC(F)(C(=O)N(Cc2ccc(-c3nnc(C(F)F)o3)cn2)c2ccccc2)C1` [Compound 3153, N-((5-(5-(difluoromethyl)-1,3,4-oxadiazol-2-yl)pyridin-2-yl)methyl)-3-fluoro-N-phenyl-1-propionylazetidine-3-carboxamide] are > 50000 nM, 1,347 fold and 37.1 nM.
On the same counts, the results for `CCCC(=O)N1CC(F)(C(=O)N(Cc2ccc(-c3nnc(C(F)F)o3)cn2)c2ccccc2)C1` [Compound 3154, 1-butyryl-N-((5-(5-(difluoromethyl)-1,3,4-oxadiazol-2-yl)pyridin-2-yl)methyl)-3-fluoro-N-phenylazetidine-3-carboxamide] are > 50000 nM, 1,506 fold and 33.2 nM.
As for `CC(C)CC(=O)N1CC(F)(C(=O)N(Cc2ccc(-c3nnc(C(F)F)o3)cn2)c2ccccc2)C1` [Compound 3155, N-((5-(5-(difluoromethyl)-1,3,4-oxadiazol-2-yl)pyridin-2-yl)methyl)-3-fluoro-1-(3-methylbutanoyl)-N-phenylazetidine-3-carboxamide], the IC50 was > 50000 nM at human recombinant HDAC1 and 37.7 nM on human recombinant HDAC6. Besides, the “HDAC6 selectivity (fold)” value at human recombinant HDAC6 was 1,326 fold.
On the same counts, the results for `O=C(N(Cc1ccc(-c2nnc(C(F)F)o2)cn1)c1ccccc1)C1(F)CN(CC2CCCCC2)C1` [Compound 3156, 1-(cyclohexylmethyl)-N-((5-(5-(difluoromethyl)-1,3,4-oxadiazol-2-yl)pyridin-2-yl)methyl)-3-fluoro-N-phenylazetidine-3-carboxamide] are > 50000 nM, 77 nM and 649 fold.
Turning to `COCCC(=O)N1CC(F)(C(=O)N(Cc2ccc(-c3nnc(C(F)F)o3)cn2)c2ccccc2)C1` [Compound 3157, N-((5-(5-(difluoromethyl)-1,3,4-oxadiazol-2-yl)pyridin-2-yl)methyl)-3-fluoro-1-(3-methoxypropanoyl)-N-phenylazetidine-3-carboxamide], the IC50 on human recombinant HDAC1 was > 50000 nM; on human recombinant HDAC6, 53.1 nM. At human recombinant HDAC6, the “HDAC6 selectivity (fold)” value was determined as 941 fold.
Consider `O=C(C1CC1)N1CC(F)(C(=O)N(Cc2ccc(-c3nnc(C(F)F)o3)cn2)c2ccccc2)C1` [Compound 3158, 1-(cyclopropanecarbonyl)-N-((5-(5-(difluoromethyl)-1,3,4-oxadiazol-2-yl)pyridin-2-yl)methyl)-3-fluoro-N-phenylazetidine-3-carboxamide], for which, at human recombinant HDAC1, the half-inhibitory concentration (IC50) was > 50000 nM. In addition, at human recombinant HDAC6, the “HDAC6 selectivity (fold)” value is reported as 1,400 fold and the concentration for half-maximal inhibition (IC50) was 35.7 nM.
On the same counts, the results for `O=C(C1CCC1)N1CC(F)(C(=O)N(Cc2ccc(-c3nnc(C(F)F)o3)cn2)c2ccccc2)C1` [Compound 3159, 1-(cyclobutanecarbonyl)-N-((5-(5-(difluoromethyl)-1,3,4-oxadiazol-2-yl)pyridin-2-yl)methyl)-3-fluoro-N-phenylazetidine-3-carboxamide] are > 50000 nM, 1,650 fold and 30.3 nM.
On to `O=C(C1CCCC1)N1CC(F)(C(=O)N(Cc2ccc(-c3nnc(C(F)F)o3)cn2)c2ccccc2)C1` [Compound 3160, 1-(cyclopentanecarbonyl)-N-((5-(5-(difluoromethyl)-1,3,4-oxadiazol-2-yl)pyridin-2-yl)methyl)-3-fluoro-N-phenylazetidine-3-carboxamide], for which, on human recombinant HDAC1, the IC50 was > 50000 nM. For the same compound, on human recombinant HDAC6, the “HDAC6 selectivity (fold)” value is 1,466 fold and the IC50 is 34.1 nM.
On the same counts, the results for `O=C(N(Cc1ccc(-c2nnc(C(F)F)o2)cn1)c1ccccc1)C1(F)CN(C2CCSCC2)C1` [Compound 3162, N-((5-(5-(difluoromethyl)-1,3,4-oxadiazol-2-yl)pyridin-2-yl)methyl)-3-fluoro-N-phenyl-1-(tetrahydro-2H-thiopyran-4-yl)azetidine-3-carboxamide] are > 50000 nM, 2,272 fold and 22 nM.
Take `CCC(=O)N1CC(F)(C(=O)N(Cc2ccc(-c3nnc(C(F)F)o3)cn2)c2cccc(F)c2)C1` [Compound 3163, N-((5-(5-(difluoromethyl)-1,3,4-oxadiazol-2-yl)pyridin-2-yl)methyl)-3-fluoro-N-(3-fluorophenyl)-1-propionylazetidine-3-carboxamide]: the IC50 on human recombinant HDAC1 was > 50000 nM. Further, on human recombinant HDAC6, the “HDAC6 selectivity (fold)” value is recorded as 2,155 fold and the IC50 is 23.2 nM.
Taken in the same sequence, the figures for `CC(=O)N1CC(F)(C(=O)N(Cc2ccc(-c3nnc(C(F)F)o3)cn2)c2cccc(F)c2)C1` [Compound 3164, 1-acetyl-N-((5-(5-(difluoromethyl)-1,3,4-oxadiazol-2-yl)pyridin-2-yl)methyl)-3-fluoro-N-(3-fluorophenyl)azetidine-3-carboxamide] were > 50000 nM, 2,808 fold and 17.8 nM.
As for `CCCC(=O)N1CC(F)(C(=O)N(Cc2ccc(-c3nnc(C(F)F)o3)cn2)c2cccc(F)c2)C1` [Compound 3165, 1-butyryl-N-((5-(5-(difluoromethyl)-1,3,4-oxadiazol-2-yl)pyridin-2-yl)methyl)-3-fluoro-N-(3-fluorophenyl)azetidine-3-carboxamide], the concentration for half-maximal inhibition (IC50) on human recombinant HDAC1 is > 50000 nM. In addition, at human recombinant HDAC6, the “HDAC6 selectivity (fold)” value is listed as 2,066 fold and the concentration for half-maximal inhibition (IC50) was found to be 24.2 nM.
Taken in the same sequence, the figures for `CC(C)CC(=O)N1CC(F)(C(=O)N(Cc2ccc(-c3nnc(C(F)F)o3)cn2)c2cccc(F)c2)C1` [Compound 3166, N-((5-(5-(difluoromethyl)-1,3,4-oxadiazol-2-yl)pyridin-2-yl)methyl)-3-fluoro-N-(3-fluorophenyl)-1-(3-methylbutanoyl)azetidine-3-carboxamide] were > 50000 nM, 741 fold and 67.4 nM.
Taken in the same sequence, the figures for `O=C(C1CCC1)N1CC(F)(C(=O)N(Cc2ccc(-c3nnc(C(F)F)o3)cn2)c2cccc(F)c2)C1` [Compound 3168, 1-(cyclobutanecarbonyl)-N-((5-(5-(difluoromethyl)-1,3,4-oxadiazol-2-yl)pyridin-2-yl)methyl)-3-fluoro-N-(3-fluorophenyl)azetidine-3-carboxamide] were > 50000 nM, 2,906 fold and 17.2 nM.
Taken in the same sequence, the figures for `O=C(C1CCCC1)N1CC(F)(C(=O)N(Cc2ccc(-c3nnc(C(F)F)o3)cn2)c2cccc(F)c2)C1` [Compound 3169, 1-(cyclopentanecarbonyl)-N-((5-(5-(difluoromethyl)-1,3,4-oxadiazol-2-yl)pyridin-2-yl)methyl)-3-fluoro-N-(3-fluorophenyl)azetidine-3-carboxamide] were > 50000 nM, 2,808 fold and 17.8 nM.
Regarding `O=C(C1CCCCC1)N1CC(F)(C(=O)N(Cc2ccc(-c3nnc(C(F)F)o3)cn2)c2cccc(F)c2)C1` [Compound 3170, 1-(cyclohexanecarbonyl)-N-((5-(5-(difluoromethyl)-1,3,4-oxadiazol-2-yl)pyridin-2-yl)methyl)-3-fluoro-N-(3-fluorophenyl)azetidine-3-carboxamide], the values for the IC50 at human recombinant HDAC1 and on human recombinant HDAC6 were > 50000 nM and 24.2 nM, respectively. Also, the “HDAC6 selectivity (fold)” value on human recombinant HDAC6 is 2,066 fold.
